SMILES strings stand for the structures. Where only a bound is given, the exact number is not on record here.

Tested on in the first data set: not given
The conditions noted are these: male, SD, in vivo. On the procedure:
Male SD rats (n=3/compound/route) were used for single intravenous and oral dose PK studies. Compounds were administered intravenously (infusion over 30 minutes) as a solution (Formulation: 5% DMSO: 20% Encapsine in saline; target dose 1 mg/kg) and orally as suspensions (Formulation: 1% Methyl Cellulose; target dose 5 mg/kg). After dosing, blood samples ([…]) were collected. Sampling times were the following:
0.25, 0.5 (just before end of infusion), 0.58, 0.75, 1, 1.5, 2, 3, 5, 7, and 24 hours; n=3 rats (intravenous infusion administration) 0.25, 0.5, 1, 2, 4, 6, 8, and 24 hours; n=3 rats (oral gavage administration)
All the blood samples were diluted with 25 μL of water and stored at −80° C. until analysis. Rat blood samples were analyzed for each compound using a method upon protein precipitation followed by LC-MS/MS analysis. All pharmacokinetic parameters were obtained by non-compartmental analysis of the different blood concentration-time profiles using WinNonLin Phoenix Version 6.3.
For the compound `O=C(CCC(F)(F)F)N1CCC(c2cncc(Cl)c2)CC1` [Example 30, 1-(4-(5-chloropyridin-3-yl)piperidin-1-yl)-4,4,4-trifluorobutan-1-one], the “F % (rat, 5 mg/kg)” value amounted to 77%.
On the same count and under the same terms, the value for `O=C(CCC(F)(F)F)N1CCC(c2ccnc(C(F)(F)F)c2)CC1` [Example 18, 4,4,4-trifluoro-1-(4-(2-(trifluoromethyl)pyridin-4-yl)piperidin-1-yl)butan-1-one] was 75%.

Another data set relates to M. tuberculosis H37Rv-GFP. Format: cell-based, Mycobacterium tuberculosis. The note with it: read-out: EC50_H37Rv.
Consider `O=C(CCC(F)(F)F)N1CCC(c2cncc(Cl)n2)CC1` [Example 32, 1-(4-(6-chloropyrazin-2-yl)piperidin-1-yl)-4,4,4-trifluorobutan-1-one], for which the EC50 is less than 50 nM.
For `O=C(CCCC(F)(F)F)N1CCC(c2cncc(Cl)c2)CC1` [Example 31, 1-(4-(5-chloropyridin-3-yl)piperidin-1-yl)-5,5,5-trifluoropentan-1-one], the EC50 was 50 to 250 nM.
Turning to `Cc1cc(C2CCN(C(=O)CCC(F)(F)F)CC2)ccn1` [Example 22, 4,4,4-trifluoro-1-(4-(2-methylpyridin-4-yl)piperidin-1-yl)butan-1-one], the EC50 is less than 50 nM.
For the compound `O=C(CCC(F)(F)F)N1CCC(c2cccc(Cl)n2)CC1` [Example 27, 1-(4-(6-chloropyridin-2-yl)piperidin-1-yl)-4,4,4-trifluorobutan-1-one], the EC50 was in the range of 50 to 250 nM.
As to `O=C(CCC(F)(F)F)N1CCC(c2cnccn2)CC1` [Example 1, 4,4,4-trifluoro-1-(4-pyrazin-2-yl-1-piperidyl)butan-1-one], the EC50 fell in the range of 500 to 1000 nM.
The same measure, in the same setting: the value for `O=C(CCC(F)(F)F)N1CCC(c2ccnc(F)c2)CC1` [Example 20, 4,4,4-trifluoro-1-(4-(2-fluoropyridin-4-yl)piperidin-1-yl)butan-1-one] was less than 50 nM.
Consider `O=C(CCC(F)(F)F)N1CCC(c2ccncc2F)CC1` [Example 26, 4,4,4-trifluoro-1-(4-(3-fluoropyridin-4-yl)piperidin-1-yl)butan-1-one], for which the EC50 lay in the range of 50 to 250 nM.
With `O=C(CCC(F)(F)F)N1CCC(c2cncc(Cl)c2)CC1` [Example 30, 1-(4-(5-chloropyridin-3-yl)piperidin-1-yl)-4,4,4-trifluorobutan-1-one], the EC50 was less than 50 nM.
Take `O=C(CCC(F)(F)F)N1CCC(c2cncc(F)c2)CC1` [Example 3, 4,4,4-trifluoro-1-[4-(5-fluoro-3-pyridyl)-1-piperidyl]butan-1-one]: the EC50 lay within 50 to 250 nM.
As for `O=C(CCC(F)(F)F)N1CCC(c2cnc(F)c(F)c2)CC1` [Example 23, 1-(4-(5,6-difluoropyridin-3-yl)piperidin-1-yl)-4,4,4-trifluorobutan-1-one], the EC50 was less than 50 nM.
Regarding `O=C(CCC(F)(F)F)N1CCC(c2cccnn2)CC1` [Example 19, 4,4,4-trifluoro-1-[4-(pyridazin-3-yl)piperidin-1-yl]butan-1-one], the EC50 fell in the range of 1000 to 10000 nM.
For the compound `O=C(CCC(F)(F)F)N1CCC(c2cncnc2)CC1` [Example 16], the EC50 lay in the range of 1000 to 10000 nM.
Still for that read-out and setting: the value for `O=C(CCC(F)(F)F)N1CCC(c2nccc(C(F)(F)F)n2)CC1` [Example 15] was 1000 to 10000 nM; that for `O=C(CCC(F)(F)F)N1CCC(F)(c2ccccn2)CC1` [Example 33, 4,4,4-trifluoro-1-(4-fluoro-4-(pyridin-2-yl)piperidin-1-yl)butan-1-one] was 50 to 250 nM; that for `O=C(CCC(F)(F)F)N1CCC(c2ccnc(C(F)(F)F)c2)CC1` [Example 18, 4,4,4-trifluoro-1-(4-(2-(trifluoromethyl)pyridin-4-yl)piperidin-1-yl)butan-1-one] was less than 50 nM.
Turning to `O=C(CCC(F)(F)F)N1CCC(c2ccc(F)cn2)CC1` [Example 17, 4,4,4-trifluoro-1-[4-(5-fluoro-2-pyridyl)-1-piperidyl]butan-1-one], the EC50 is less than 50 nM.
Consider `O=C(CCC(F)(F)F)N1CCC(F)(c2cccnc2)CC1` [Example 2, 4,4,4-trifluoro-1-[4-fluoro-4-(3-pyridyl)-1-piperidyl]butan-1-one], for which the EC50 is less than 50 nM.
As for `O=C(CCC(F)(F)F)N1CCC(c2ncc(F)cc2F)CC1` [Example 13, 1-[4-(3,5-difluoro-2-pyridyl)-1-piperidyl]-4,4,4-trifluoro-butan-1-one], the EC50 is 50 to 250 nM.
For `O=C(CCC(F)(F)F)N1CCC(F)(c2cncc(Cl)c2)CC1` [Example 29, 1-(4-(5-chloropyridin-3-yl)-4-fluoropiperidin-1-yl)-4,4,4-trifluorobutan-1-one], the EC50 was less than 50 nM.
The same measure, in the same setting: the value for `O=C(CCC(F)(F)F)N1CCC(F)(c2ccnc(C(F)(F)F)c2)CC1` [Example 35, 4,4,4-trifluoro-1-(4-fluoro-4-(2-(trifluoromethyl)pyridin-4-yl)piperidin-1-yl)butan-1-one] was less than 50 nM.
Same read-out and setting: the value for `O=C(CCC(F)(F)F)N1CCC(F)(c2ccnc(F)c2)CC1` [Example 37, 4,4,4-trifluoro-1-(4-fluoro-4-(2-fluoropyridin-4-yl)piperidin-1-yl)butan-1-one] was less than 50 nM.
`O=C(CCC(F)(F)F)N1CCC(c2ccc(F)nc2F)CC1` [Example 14, 1-[4-(2,6-difluoro-3-pyridyl)-1-piperidyl]-4,4,4-trifluoro-butan-1-one]: the EC50 lay within 50 to 250 nM.
As to `O=C(CCC(F)(F)F)N1CCC(c2cncc(C(F)(F)F)c2)CC1` [Example 7, 4,4,4-trifluoro-1-[4-[5-(trifluoromethyl)-3-pyridyl]-1-piperidyl]butan-1-one], the EC50 is less than 50 nM.
In the case of `O=C(CCC(F)(F)F)N1CCC(c2cc(C(F)(F)F)ccn2)CC1` [Example 6, 4,4,4-trifluoro-1-[4-[4-(trifluoromethyl)-2-pyridyl]-1-piperidyl]butan-1-one], the EC50 is less than 50 nM.
For the compound `O=C(CCC(F)(F)F)N1CCC(F)(c2ccnc(Cl)c2)CC1` [Example 41], the EC50 is less than 50 nM.
As to `O=C(CCC(F)(F)F)N1CCC(c2ncccn2)CC1` [Example 28, 4,4,4-trifluoro-1-[4-(pyrimidin-2-yl)piperidin-1-yl]butan-1-one], the EC50 was in the range of 1000 to 10000 nM.
Regarding `O=C(CCC(F)(F)F)N1CCC(c2cncc(C(F)(F)F)n2)CC1` [Example 24, 4,4,4-trifluoro-1-(4-(6-(trifluoromethyl)pyrazin-2-yl)piperidin-1-yl)butan-1-one], the EC50 was 50 to 250 nM.
Consider `O=C(CCC(F)(F)F)N1CCC(c2cccc(C(F)(F)F)n2)CC1` [Example 8, 4,4,4-trifluoro-1-[4-[6-(trifluoromethyl)-2-pyridyl]-1-piperidyl]butan-1-one], for which the EC50 was in the range of 50 to 250 nM.
Consider `O=C(CCC(F)(F)F)N1CCC(c2cccnc2C(F)(F)F)CC1` [Example 11, 4,4,4-trifluoro-1-[4-[2-(trifluoromethyl)-3-pyridyl]-1-piperidyl]butan-1-one], for which the EC50 was 1000 to 10000 nM.
Same read-out and setting: the value for `O=C(CCC(F)(F)F)N1CCC(c2cnc(C(F)(F)F)cn2)CC1` [Example 21, 4,4,4-trifluoro-1-(4-(5-(trifluoromethyl)pyrazin-2-yl)piperidin-1-yl)butan-1-one] was 500 to 1000 nM; that for `O=C(CCC(F)(F)F)N1CCC(F)(c2cncc(C(F)(F)F)c2)CC1` [Example 34, 4,4,4-trifluoro-1-(4-fluoro-4-(5-(trifluoromethyl)pyridin-3-yl)piperidin-1-yl)butan-1-one] was less than 50 nM.
`O=C(CCC(F)(F)F)N1CCC(c2cccc(F)n2)CC1` [Example 9, 4,4,4-trifluoro-1-[4-(6-fluoro-2-pyridyl)-1-piperidyl]butan-1-one]: the EC50 was in the range of 50 to 250 nM.
With `O=C(CCC(F)(F)F)N1CCC(F)(c2cncc(Cl)n2)CC1` [Example 36, 1-(4-(6-chloropyrazin-2-yl)-4-fluoropiperidin-1-yl)-4,4,4-trifluorobutan-1-one], the EC50 lay within 50 to 250 nM.
Consider `O=C(CCC(F)(F)F)N1CCC(c2ccc(C(F)(F)F)nc2)CC1` [Example 5, 4,4,4-trifluoro-1-[4-[6-(trifluoromethyl)-3-pyridyl]-1-piperidyl]butan-1-one], for which the EC50 is 500 to 1000 nM.
With `O=C(CCC(F)(F)F)N1CCC(c2cncc(Cl)c2)C1` (centres unmarked) [Example 38, 1-(3-(5-chloropyridin-3-yl)pyrrolidin-1-yl)-4,4,4-trifluorobutan-1-one], the EC50 is less than 50 nM.
In the case of `COc1ccc(C2CCN(C(=O)CCC(F)(F)F)CC2)cn1` [Example 10, 4,4,4-trifluoro-1-[4-(6-methoxy-3-pyridyl)-1-piperidyl]butan-1-one], the EC50 lay within 50 to 250 nM.
For `COc1cncc(C2CCN(C(=O)CCC(F)(F)F)CC2)c1` [Example 12, 4,4,4-trifluoro-1-[4-(5-methoxy-3-pyridyl)-1-piperidyl]butan-1-one], the EC50 lay within 500 to 1000 nM.
As to `O=C(CCC(F)(F)F)N1CCC(F)(c2cc(C(F)(F)F)ccn2)CC1` [Example 39, 4,4,4-trifluoro-1-[4-fluoro-4-[4-(trifluoromethyl)-2-pyridyl]-1-piperidyl]butan-1-one], the EC50 was 50 to 250 nM.
As for `O=C(CCC(F)(F)F)N1CCC(c2ccnc(Cl)c2)CC1` [Example 25, 1-(4-(2-chloropyridin-4-yl)piperidin-1-yl)-4,4,4-trifluorobutan-1-one], the EC50 was less than 50 nM.
On to `O=C(CCC(F)(F)F)N1CCC(c2ccc(F)nc2)CC1` [Example 4, 4,4,4-trifluoro-1-[4-(6-fluoro-3-pyridyl)-1-piperidyl]butan-1-one], for which the EC50 lay within 50 to 250 nM.
For `O=C(CCC(F)(F)F)N1CCC(F)(c2ccc(F)nc2)CC1` [Example 40], the EC50 was 50 to 250 nM.

Tested on in another data set: not given
The conditions noted are these: male, Swiss (Crl:CD-1(ICR)), mouse, in vivo.
For the compound `O=C(CCC(F)(F)F)N1CCC(c2cncc(Cl)c2)CC1` [Example 30, 1-(4-(5-chloropyridin-3-yl)piperidin-1-yl)-4,4,4-trifluorobutan-1-one], the “Mice liver hypertrophy (%)” value is given as 2%.
On to `O=C(CCC(F)(F)F)N1CCC(c2ccnc(C(F)(F)F)c2)CC1` [Example 18, 4,4,4-trifluoro-1-(4-(2-(trifluoromethyl)pyridin-4-yl)piperidin-1-yl)butan-1-one], for which the “Mice liver hypertrophy (%)” value was found to be 6%.

A further data set relates to PPAR marker. The conditions noted are these: male, Swiss (Crl:CD-1(ICR)), mouse.
Turning to `O=C(CCC(F)(F)F)N1CCC(c2cncc(Cl)c2)CC1` [Example 30, 1-(4-(5-chloropyridin-3-yl)piperidin-1-yl)-4,4,4-trifluorobutan-1-one], the “In vivo PPAR marker fold increase” value is on record as less than 2 fold.
`O=C(CCC(F)(F)F)N1CCC(c2ccnc(C(F)(F)F)c2)CC1` [Example 18, 4,4,4-trifluoro-1-(4-(2-(trifluoromethyl)pyridin-4-yl)piperidin-1-yl)butan-1-one]: the “In vivo PPAR marker fold increase” value is on record as less than 6 fold.

The record behind these values is patent publication US11969423B2, “Compounds” (GLAXOSMITHKLINE INTELLECTUAL PROPERTY DEVELOPMENT LIMITED, priority 2017, dated 2024).
